From ChEMBL document CHEMBL1128622, “Formation of nitrogen oxides including NO from oxidative cleavage of CN(OH) bonds: A general cytochrome P450-dependent reaction” (Bioorg Med Chem Lett, 1995)

Legend:
Rattus norvegicus [1] = species: Rattus norvegicus; conditions: Liver, Microsomes
Rattus norvegicus [2] = species: Rattus norvegicus; conditions: Liver, Microsomes; remark: listed apart in the source
Description: Ability to undergo a P450-dependent oxidative cleavage of the C=N bond by incubating with rat (untreated) liver microsomes in the presence of NADPH

Rattus norvegicus [3] = species: Rattus norvegicus; experiment: Ability to undergo a P450-dependent oxidative cleavage of their C=N bond, to release NO3- by incubating with rat (treated by DEX) liver microsomes in the presence of NADPH; format: functional
Rattus norvegicus [4] = species: Rattus norvegicus; experiment: Ability to undergo a P450-dependent oxidative cleavage of their C=N bond, to release corresponding alkylketone derivative by incubating with rat (treated by DEX) liver microsomes in the presence of the NADPH; format: functional
Rattus norvegicus [5] = species: Rattus norvegicus; experiment: Ability to undergo a P450-dependent oxidative cleavage of the C=N bond by incubating with rat (treated by DEX) liver microsomes in the presence of NADPH; format: functional

Structure (SMILES) | Formation of NO2- (Rattus norvegicus [1]) [nM] | Formation of NO2- (Rattus norvegicus [2]) [nM] | Formation of NO3- (Rattus norvegicus [3]) [nM] | Formation of compound (Rattus norvegicus [4]) [nM] | Formation of NO3- (Rattus norvegicus [5]) [nM]
O/N=C/c1ccccc1 | 3 | < 0.1 |  |  | 
CCCCCC/C=N/O | 3.7 | 0.2 |  |  | 
CCCCC/C(C)=N\O | 7 | < 0.1 |  |  | 
O/N=C/c1ccc(Cl)cc1 | 2 | < 0.1 |  |  | 
N/C(=N\O)c1ccc(Cl)cc1 | 2.6 | 0.7 | 1.5 | 5.1 | 
N/C(=N\O)N1CCCCC1 | 79 | 1.1 |  |  | 
ON=C1CCCCC1 | 3 | < 0.1 |  |  | 
ON=C(NC1CCCCC1)NC1CCCCC1 | 58 | < 0.1 |  |  | 
N=C(NO)Nc1ccc(Cl)cc1 | 18.4 | 0.6 | 4.4 | 17.7 | 
CCCC/C(CC)=N\O | 5.1 | < 0.1 |  |  | 
CC(C)/N=C(/NO)NC(C)C | 62 | 0.9 |  |  | 
CCCCCCOc1ccc(C(=N)NO)cc1 | 6.8 | 0.6 | 8.1 | 12.5 | 
N/C(=N/c1ccc(C(F)(F)F)cc1)NO | 11 | < 0.1 |  |  | 
N/C(=N/C1CCCCC1)NO | 28.6 | < 0.1 |  |  | 
C/C(=N\O)c1ccc(Cl)cc1 | 6.2 | 0.1 |  | 6.4 | 1.2
N/C(=N\O)c1ccccc1 | 2.5 | 0.2 |  |  | 
C/C(=N\O)c1ccccc1 | 3.2 | < 0.1 |  |  | 
